Earlier results in patent US20240093147A1, “GLIA-LIKE CELLS DIFFERENATIATED FROM SOMATIC CELLS, PREPARATION METHOD THEREFOR, COCKTAIL COMPOSITION FOR PREPARING SAME, CELL THERAPEUTIC AGENT FOR PREVENTING OR TREATING NEUROLOGICAL DISORDERS, COMPRISING SAME, AND METHOD FOR PREVENTING AND TREATING NEUROLOGICAL DISORDERS BY ADMINISTERING SAME” (CELLAPEUTICS BIO, priority 2019, published 2024).
pIC50: −log10 of the molar value.

Experiments:
HDAC = settings: valproic acid, HDAC inhibitor
[1] = forskolin, cAMP agonist

| pIC50 (HDAC) | pIC50 [1] | SMILES |
| --- | --- | --- |
| 2.70 |  | CCCC(CCC)C(=O)O [Valproic Acid, valproic acid] |
|  | 6.30 | C=C[C@@]1(C)CC(=O)[C@]2(O)[C@@]3(C)[C@@H](O)CCC(C)(C)[C@@H]3[C@H](O)[C@H](OC(C)=O)[C@@]2(C)O1 [Forskolin, forskolin] |
